In patent US20240239752A1, “BICYCLIC HETEROAROMATIC INHIBITORS OF KLK5” (BioCryst Pharmaceuticals, Inc., priority 2021, published 2024) one finds IC50 data, which are given here for 31 compounds.

In general, IC50 refers to the point on the concentration scale where inhibition reaches its midpoint.

The assay has as its target T1, recombinant human KLK5 (Homo sapiens, UniProt Q9Y337).
T1 construct: purchased Novoprotein or R&D Systems C415 or 1108-SE
T1 sequence (Q9Y337 23-293): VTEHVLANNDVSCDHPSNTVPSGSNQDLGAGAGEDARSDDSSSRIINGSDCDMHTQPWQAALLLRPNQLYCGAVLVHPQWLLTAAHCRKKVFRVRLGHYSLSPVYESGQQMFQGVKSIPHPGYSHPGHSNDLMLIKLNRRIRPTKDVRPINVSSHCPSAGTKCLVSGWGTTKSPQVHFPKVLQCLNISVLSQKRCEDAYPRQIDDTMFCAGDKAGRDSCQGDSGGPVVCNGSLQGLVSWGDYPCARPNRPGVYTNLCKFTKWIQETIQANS
Put plainly: Kallikrein (KLK) 5 enzymatic assay (Boc-VPR-AMC fluorogenic substrate). Type of assay: biochemical. The following applies: recombinant human KLK5 0.1 μg/well, Boc-VPR-AMC 100 μM, pH 7.5, room temperature, 1% DMSO; tested a minimum of three times. Put shortly:
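Fluorogenic rate assay at pH 7.5 (0.1 M NaH2PO4, 1% DMSO, room temperature), run at least three times per compound. Compound was premixed with 0.1 μg/well recombinant human KLK5 before adding 100 μM Boc-VPR-AMC; AMC release was read at ex 380/em 460 nm, and IC50 derived from inhibition of rate vs DMSO control.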
In the case of `N=C(N)c1cccc(-c2cc(OCc3nccs3)c3occ(COc4ccccc4CC(=O)O)c3c2)c1` [Compound 228f, 2-(2-((5-(3-carbamimidoylphenyl)-7-(thiazol-2-ylmethoxy)benzofuran-3-yl)methoxy)phenyl)acetic acid], the IC50 was under 1000 nM. For `COc1cc(-c2ccc3ccnc(N)c3c2)cc2c(COc3ccccc3CC(=O)O)coc12` [Compound 229f, 2-(2-((5-(1-aminoisoquinolin-7-yl)-7-methoxybenzofuran-3-yl)methoxy)phenyl)acetic acid] the value was 1000 to 10000 nM. Then `COc1cc(-c2ccc3ccnc(N)c3c2)cc2c(COc3cc(C)ccc3CC(=O)O)coc12` [Compound 230d, 2-(2-((5-(1-aminoisoquinolin-7-yl)-7-methoxybenzofuran-3-yl)methoxy)-4-methylphenyl)acetic acid], with 1000 to 10000 nM; and `Nc1nccc2ccc(-c3cc4c(COc5ccccc5CC(=O)O)cccc4o3)cc12` [Compound 231f, 2-(2-((2-(1-aminoisoquinolin-7-yl)benzofuran-4-yl)methoxy)phenyl)acetic acid], with 1000 to 10000 nM. For the compound `Nc1nccc2c(-c3cc4c(COc5ccccc5CC(=O)O)cccc4o3)cccc12` [Compound 232b, 2-(2-((2-(1-aminoisoquinolin-5-yl)benzofuran-4-yl)methoxy)phenyl)acetic acid], the concentration for half-maximal inhibition (IC50) is over 10000 nM. Then `Cc1cc(-c2ccc3ccnc(N)c3c2)cc2c(COc3ccccc3CC(=O)O)coc12` [Compound 233f, 2-(2-((5-(1-aminoisoquinolin-7-yl)-7-methylbenzofuran-3-yl)methoxy)phenyl)acetic acid], with 1000 to 10000 nM. For `COc1ccc(CC(=O)O)c(OCc2coc3c(OC)cc(-c4ccc5ccnc(N)c5c4)cc23)c1` [Compound 234c, 2-(2-((5-(1-aminoisoquinolin-7-yl)-7-methoxybenzofuran-3-yl)methoxy)-4-methoxyphenyl)acetic acid] the value was over 10000 nM. For `COc1cc(-c2cccc3c(N)nccc23)cc2c(COc3ccccc3CC(=O)O)coc12` [Compound 235b, 2-(2-((5-(1-aminoisoquinolin-5-yl)-7-methoxybenzofuran-3-yl)methoxy)phenyl)acetic acid] the value was 1000 to 10000 nM.

For `COc1cc(-c2cccc(C(=N)N)c2)cc2c(COc3ccccc3CC(=O)O)coc12` [Compound 236b, 2-(2-((5-(3-carbamimidoylphenyl)-7-methoxybenzofuran-3-yl)methoxy)phenyl)acetic acid], the IC50 is under 1000 nM. On to `COc1cc(-c2ccc3ccnc(N)c3c2)cc2c(COc3c(C)cccc3CC(=O)O)coc12` [Compound 237c, 2-(2-((5-(1-aminoisoquinolin-7-yl)-7-methoxybenzofuran-3-yl)methoxy)-3-methylphenyl)acetic acid], for which the IC50 was over 10000 nM. For `COc1c(C(=N)N)cccc1-c1ccc2c(c1)c(COc1ccccc1CC(=O)O)nn2C1CCC1` [Compound 238d, 2-(2-((5-(3-carbamimidoyl-2-methoxyphenyl)-1-cyclobutyl-1H-indazol-3-yl)methoxy)phenyl)acetic acid] the value was under 1000 nM; for `Cc1cccc(OCc2nn(C3CCCC3)c3ccc(-c4cccc5c(N)nccc45)cc23)c1CC(=O)O` [Compound 239f, 2-(2-((5-(1-aminoisoquinolin-5-yl)-1-cyclopentyl-1H-indazol-3-yl)methoxy)-6-methylphenyl)acetic acid], under 1000 nM; for `Cc1cccc(OCc2nn(C3CCCC3)c3ccc(-c4ccc5ccnc(N)c5c4)cc23)c1CC(=O)O` [Compound 240b, 2-(2-((5-(1-aminoisoquinolin-7-yl)-1-cyclopentyl-1H-indazol-3-yl)methoxy)-6-methylphenyl)acetic acid], under 1000 nM.

Regarding `CC(C(=O)O)c1ccccc1OCc1nn(C2CCOC2)c2ccc(-c3cccc4c(N)nccc34)cc12` (stereo not shown) [Compound 241f, 2-(2-((5-(1-aminoisoquinolin-5-yl)-1-(tetrahydrofuran-3-yl)-1H-indazol-3-yl)methoxy)phenyl)propanoic acid], the 50% inhibitory concentration (IC50) was under 1000 nM. Then `CC(C(=O)O)c1ccccc1OCc1nn(C2CCOC2)c2ccc(-c3ccc4ccnc(N)c4c3)cc12` (stereo not shown) [Compound 242b, 2-(2-((5-(1-aminoisoquinolin-7-yl)-1-(tetrahydrofuran-3-yl)-1H-indazol-3-yl)methoxy)phenyl)propanoic acid], with under 1000 nM.

As for `Nc1nccc2c(-c3ccc4c(c3)c(COc3ccccc3CC(=O)O)nn4[C@H]3CCOC3)cccc12` [Compound 243h, (S)-2-(2-((5-(1-aminoisoquinolin-5-yl)-1-(tetrahydrofuran-3-yl)-1H-indazol-3-yl)methoxy)phenyl)acetic acid], the IC50 is under 1000 nM. Then `Nc1nccc2ccc(-c3ccc4c(c3)c(COc3ccccc3CC(=O)O)nn4[C@H]3CCOC3)cc12` [Compound 244b, (S)-2-(2-((5-(1-aminoisoquinolin-7-yl)-1-(tetrahydrofuran-3-yl)-1H-indazol-3-yl)methoxy)phenyl)acetic acid], with under 1000 nM; and `Nc1nccc2c(-c3ccc4c(c3)c(COc3ccccc3CC(=O)O)nn4[C@@H]3CCOC3)cccc12` [Compound 245h, (R)-2-(2-((5-(1-aminoisoquinolin-5-yl)-1-(tetrahydrofuran-3-yl)-1H-indazol-3-yl)methoxy)phenyl)acetic acid], with under 1000 nM.

Turning to `Nc1nccc2ccc(-c3ccc4c(c3)c(COc3ccccc3CC(=O)O)nn4[C@@H]3CCOC3)cc12` [Compound 246b, (R)-2-(2-((5-(1-aminoisoquinolin-7-yl)-1-(tetrahydrofuran-3-yl)-1H-indazol-3-yl)methoxy)phenyl)acetic acid], the IC50 is under 1000 nM. For `Cc1cccc(OCc2nn(C3CCOC3)c3ccc(-c4cccc5c(N)nccc45)cc23)c1CC(=O)O` (stereo not shown) [Compound 247c, 2-(2-((5-(1-aminoisoquinolin-5-yl)-1-(tetrahydrofuran-3-yl)-1H-indazol-3-yl)methoxy)-6-methylphenyl)acetic acid] the value was under 1000 nM; for `Cc1cccc(OCc2nn(C3CCOC3)c3ccc(-c4ccc5ccnc(N)c5c4)cc23)c1CC(=O)O` (stereo not shown) [Compound 248b, 2-(2-((5-(1-aminoisoquinolin-7-yl)-1-(tetrahydrofuran-3-yl)-1H-indazol-3-yl)methoxy)-6-methylphenyl)acetic acid], under 1000 nM; for `Nc1nccc2c(-c3ccc4c(c3)c(COc3ccccc3CC(=O)O)nn4C3CCOC3)cccc12` (stereo not shown) [Compound 249b, 2-(2-((5-(1-aminoisoquinolin-5-yl)-1-(tetrahydrofuran-3-yl)-1H-indazol-3-yl)methoxy)phenyl)acetic acid], under 1000 nM.

On to `Nc1nccc2ccc(-c3ccc4c(c3)c(COc3ccccc3CC(=O)O)nn4C3CCOC3)cc12` (stereo not shown) [Compound 250b, 2-(2-((5-(1-aminoisoquinolin-7-yl)-1-(tetrahydrofuran-3-yl)-1H-indazol-3-yl)methoxy)phenyl)acetic acid], for which the 50% inhibitory concentration (IC50) is under 1000 nM. For `Nc1nccc2c(-c3ccc4c(c3)c(COc3ccccc3CC(=O)O)nn4CC3CC3)cccc12` [Compound 251c, 2-(2-((5-(1-aminoisoquinolin-5-yl)-1-(cyclopropylmethyl)-1H-indazol-3-yl)methoxy)phenyl)acetic acid] the value was under 1000 nM. Then `Nc1nccc2c(-c3ccc4c(c3)c(COc3ccccc3CC(=O)O)nn4CC3CCC3)cccc12` [Compound 252h, 2-(2-((5-(1-aminoisoquinolin-5-yl)-1-(cyclobutylmethyl)-1H-indazol-3-yl)methoxy)phenyl)acetic acid], with under 1000 nM; and `Nc1nccc2ccc(-c3ccc4c(c3)c(COc3ccccc3CC(=O)O)nn4CC3CCC3)cc12` [Compound 253b, 2-(2-((5-(1-aminoisoquinolin-7-yl)-1-(cyclobutylmethyl)-1H-indazol-3-yl)methoxy)phenyl)acetic acid], with under 1000 nM.

As for `N=C(N)c1cccc(-c2ccc3c(c2)c(COc2ccccc2CC(=O)O)nn3CC2CCC2)c1` [Compound 254c, 2-(2-((5-(3-carbamimidoylphenyl)-1-(cyclobutylmethyl)-1H-indazol-3-yl)methoxy)phenyl)acetic acid], the concentration for half-maximal inhibition (IC50) is under 1000 nM.

For the compound `COc1c(C(=N)N)cccc1-c1ccc2c(c1)c(COc1ccccc1CC(=O)O)nn2CC1CCC1` [Compound 255d, 2-(2-((5-(3-carbamimidoyl-2-methoxyphenyl)-1-(cyclobutylmethyl)-1H-indazol-3-yl)methoxy)phenyl)acetic acid], the IC50 is under 1000 nM.

`Nc1nccc2c(-c3cc(-c4ccccc4)c4c(c3)C(Oc3ccccc3CC(=O)O)CC4)cccc12` (stereo not shown) [Compound 256f, 2-(2-((6-(1-aminoisoquinolin-5-yl)-4-phenyl-2,3-dihydro-1H-inden-1-yl)oxy)phenyl)acetic acid]: the half-maximal inhibitory concentration (IC50) fell in the range of 1000 to 10000 nM. Consider `Nc1nccc2c(-c3cc(C4CC4)c4c(c3)C(Oc3ccccc3CC(=O)O)CC4)cccc12` (stereo not shown) [Compound 257b, 2-(2-((6-(1-aminoisoquinolin-5-yl)-4-cyclopropyl-2,3-dihydro-1H-inden-1-yl)oxy)phenyl)acetic acid], for which the IC50 was under 1000 nM.

Turning to `Nc1nccc2c(-c3cc(Cl)c4c(c3)C(Oc3ccccc3CC(=O)O)CC4)cccc12` (stereo not shown) [Compound 258a, 2-(2-((6-(1-aminoisoquinolin-5-yl)-4-chloro-2,3-dihydro-1H-inden-1-yl)oxy)phenyl)acetic acid], the IC50 was under 1000 nM.
